Data on 2 compounds can be found in patent US10383845B2 (priority 2017, dated 2019).

Entries after “also recorded” stand apart in the source; their conditions may differ. Read-outs that look alike come from different tables or passages of the source.

The subject of assay [1] is bacterial VKOR of several strains of mycobacteria. The note with it: cited from earlier work.
Assay [2] deals with Vitamin K Oxide Reductase (Homo sapiens, UniProt Q9BQB6). The following applies: cited from earlier work.
Sequence of Vitamin K Oxide Reductase (Q9BQB6 whole entry): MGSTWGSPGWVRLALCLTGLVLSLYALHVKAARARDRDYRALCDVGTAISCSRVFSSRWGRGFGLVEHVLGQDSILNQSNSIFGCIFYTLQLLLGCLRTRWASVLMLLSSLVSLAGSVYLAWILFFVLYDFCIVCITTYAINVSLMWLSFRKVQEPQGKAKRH
The target of assay [3] is T1, human VKOR (Homo sapiens, UniProt Q9BQB6).
T1 construct: from tissue
T1 sequence (Q9BQB6 whole entry): as above
The following applies: cited from earlier work.

The subject of assay [4] is patients suffering from chronic periodontitis. Briefly: Observation of patients suffering from chronic periodontitis under continued systemic medication with Warfarin. It is filed as in vivo, human. An excerpt:
Such observations had not been reported in the medical literature or anywhere else.

In assay [5] the target is T1, human VKOR. Briefly: Inhibition of the human VKOR by unbound plasma Warfarin. The assay is classed as in vivo. The following applies: converted from ng/ml.
The nature of assay [6]: Warfarin in plasma and saliva (oral fluid) of 14 patients undergoing Warfarin therapy (Lomonaco et al. 2014). The assay is classed as in vivo, human. The note with it: inferred from the findings of Lomonaco.
In assay [7] the test system is bacteria. The note with it: cited from earlier work.

As for `CC(=O)CC(c1ccccc1)c1c(O)c2ccccc2oc1=O` (stereo not shown) [Warfarin], in assay [1], the “concentration at which bacterial VKOR was inhibited” value was 1.6 to 4.5 mM. Moreover, the “sensitivity of Vitamin K Oxide Reductase to inhibition” value in assay [2] is on record as “highly sensitive to inhibition”. For the same compound, the “unbound plasma concentration sufficient for effective inhibition of the human VKOR” value in assay [3] is 9 ± 4 ng/mL. In assay [4], the “buildup of dental plaque and tartar” value is on record as “significant decrease; also recorded: reduced”; the “chronic periodontitis / periodontal disease” value is listed as “marked improvement; also recorded: significant reduction”; the “frequency and severity of gingival inflammation occurrences” value is “reduction; also recorded: reduced”. The “unbound plasma concentration sufficient for effective inhibition of the human VKOR” value in assay [5] was around 30 nM. In addition, the “concentration in oral fluid sufficient to be effective” value in assay [6] is given as “less than 1×10^−7 M”.

For `O=c1oc2ccccc2c(O)c1Cc1c(O)c2ccccc2oc1=O` [Dicumarol], the “sensitivity of Vitamin K Oxide Reductase to inhibition” value in assay [2] is “highly sensitive to inhibition”. The antibacterial properties result in assay [7] was “marked antibacterial properties”.
